{"source": "patent US9187411B2", "about": "“Leukotriene B4 antagonist compound” (Eli Lilly and Company, priority 2012, dated 2015)", "molecular_target": "T1, hBLT2 (Homo sapiens, UniProt Q9NPC1)", "T1 construct": "expressed in transfected cells; membrane preparation", "T1 sequence (Q9NPC1 1-358)": "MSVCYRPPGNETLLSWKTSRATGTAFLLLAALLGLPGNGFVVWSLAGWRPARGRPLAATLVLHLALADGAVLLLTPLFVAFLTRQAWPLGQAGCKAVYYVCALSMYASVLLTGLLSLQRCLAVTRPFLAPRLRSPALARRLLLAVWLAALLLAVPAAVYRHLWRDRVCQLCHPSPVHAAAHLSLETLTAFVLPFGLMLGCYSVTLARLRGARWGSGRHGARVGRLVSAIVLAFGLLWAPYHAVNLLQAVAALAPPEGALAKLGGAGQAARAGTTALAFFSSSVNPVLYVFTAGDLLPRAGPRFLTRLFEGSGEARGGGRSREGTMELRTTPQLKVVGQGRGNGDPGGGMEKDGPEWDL", "assay": "[3H]-LTB4 binding assay in hBLT2 containing membranes", "conditions": "[3H]-LTB4 displacement, hBLT2/CHO-K1 membranes", "description": "[^3H]-LTB4 and known BLT1 and BLT2 antagonists are used to generate LTB4 displacement curves and IC50 values for compounds of the present invention. Receptor inhibition by compounds of the present invention is determined relative to BLT1 inhibitor and BLT2 inhibitor reference molecules to obtain percent efficacies.\nhBLT2 Test Compound Preparations: For hBLT2 assays, test compounds are prepared in DMSO to make up a 10 mM stock solution. The stock solution is initially diluted 1:10 in Buffer A (50 mM HEPES pH 7.4, 10 mM MgCl2, 10 mM NaCl, 10% glycerol (v/v), 1% BSA (w/v)), followed by 3× serial dilutions in Buffer B (50 mM HEPES pH 7.4, 10 mM MgCl2, 10 mM NaCl, 10% glycerol (v/v), 1% BSA (w/v), 10% DMSO (v/v)) creating a ten-point dilution curve. Final compound concentrations ranging from 300 μM to 15.2 nM are plated in a 96-well round-bottom plate for conducting the in vitro assays. […]\n[^3H]-LTB4 (30 μL of 2.8 nM, PerkinElmer NET-852) is aliquoted into each well of a Falcon® 3072 microtiter plate (BD Biosciences). […] The plate is allowed to sit for 16 h and then read on a Packard Instrument Company Topcount® for 1 min. […]", "note": "pIC50: −log10 of the molar value. Where two headings read alike, the source gives them in different places.", "data": [{"smiles": "CCCc1c(NC(=O)CC(C)(C)C(=O)[O-])cccc1OCCCOc1cc(O)c(-c2ccc(F)cc2)cc1CC.[Na+]", "note": "[Example 2, Sodium 4-[[3-[3-[2-ethyl-4-(4-fluorophenyl)-5-hydroxy-phenoxy]propoxy]-2-propyl-phenyl]amino]-2,2-dimethyl-4-oxo-butanoate]", "values": [{"measurement": "pIC50", "setting": "read-out: absolute IC50", "value": 4.78}, {"measurement": "pIC50", "setting": "read-out: relative IC50", "value": 4.81}]}]}
